From the NIST ThermoML archive (doi:10.1021/je400486p)
Numbers after ± are expanded uncertainties.

Assay: xn = mol fraction of the nth substance listed
Conditions: 101.3 kPa, Liquid; for viscosity: Concentric cylinders viscometry; for mass density: Vibrating tube method

CN1CCCC1=O [N-methylpyrrolidone] + CCC(C)O
Conditions	mass density [kg/m3]	viscosity [mPa·s]
288.15 K, x2 = 0	1037.3 ± 0.26	1.99 ± 0.023
288.15 K, x2 = 0.1049	1014.52 ± 0.22	1.984 ± 0.023
288.15 K, x2 = 0.2001	993.63 ± 0.2	1.974 ± 0.023
288.15 K, x2 = 0.3009	971.257 ± 0.18	1.972 ± 0.023
288.15 K, x2 = 0.4019	948.589 ± 0.17	2.005 ± 0.023
288.15 K, x2 = 0.5003	926.282 ± 0.16	2.032 ± 0.024
288.15 K, x2 = 0.5995	903.599 ± 0.15	2.118 ± 0.025
288.15 K, x2 = 0.7004	880.362 ± 0.15	2.302 ± 0.027
288.15 K, x2 = 0.7985	857.64 ± 0.15	2.618 ± 0.031
288.15 K, x2 = 0.899	834.259 ± 0.15	3.227 ± 0.038
293.15 K, x2 = 0	1032.84 ± 0.26	1.823 ± 0.021
293.15 K, x2 = 0.1049	1010.11 ± 0.22	1.815 ± 0.021
293.15 K, x2 = 0.2001	989.247 ± 0.2	1.801 ± 0.021
293.15 K, x2 = 0.3009	966.914 ± 0.18	1.798 ± 0.021
293.15 K, x2 = 0.4019	944.287 ± 0.17	1.817 ± 0.021
293.15 K, x2 = 0.5003	922.02 ± 0.16	1.839 ± 0.022
293.15 K, x2 = 0.5995	899.376 ± 0.16	1.905 ± 0.022
293.15 K, x2 = 0.7004	876.183 ± 0.15	2.048 ± 0.024
293.15 K, x2 = 0.7985	853.51 ± 0.15	2.29 ± 0.027
293.15 K, x2 = 0.899	830.183 ± 0.15	2.757 ± 0.033
298.15 K, x2 = 0	1028.38 ± 0.25	1.679 ± 0.019
298.15 K, x2 = 0.1049	1005.69 ± 0.22	1.664 ± 0.019
298.15 K, x2 = 0.2001	984.854 ± 0.2	1.652 ± 0.019
298.15 K, x2 = 0.3009	962.556 ± 0.18	1.647 ± 0.019
298.15 K, x2 = 0.4019	939.97 ± 0.17	1.655 ± 0.019
298.15 K, x2 = 0.5003	917.742 ± 0.16	1.67 ± 0.02
298.15 K, x2 = 0.5995	895.133 ± 0.16	1.72 ± 0.02
298.15 K, x2 = 0.7004	871.975 ± 0.15	1.832 ± 0.022
298.15 K, x2 = 0.7985	849.341 ± 0.15	2.019 ± 0.024
298.15 K, x2 = 0.899	826.054 ± 0.15	2.368 ± 0.028
303.15 K, x2 = 0	1023.92 ± 0.25	1.555 ± 0.018
303.15 K, x2 = 0.1049	1001.27 ± 0.21	1.538 ± 0.018
303.15 K, x2 = 0.2001	980.46 ± 0.2	1.524 ± 0.018
303.15 K, x2 = 0.3009	958.194 ± 0.18	1.514 ± 0.018
303.15 K, x2 = 0.4019	935.644 ± 0.17	1.516 ± 0.018
303.15 K, x2 = 0.5003	913.448 ± 0.16	1.522 ± 0.018
303.15 K, x2 = 0.5995	890.869 ± 0.16	1.56 ± 0.019
303.15 K, x2 = 0.7004	867.739 ± 0.15	1.645 ± 0.02
303.15 K, x2 = 0.7985	845.132 ± 0.15	1.792 ± 0.022
303.15 K, x2 = 0.899	821.864 ± 0.15	2.051 ± 0.025
308.15 K, x2 = 0	1019.46 ± 0.24	1.444 ± 0.017
308.15 K, x2 = 0.1049	996.845 ± 0.21	1.427 ± 0.017
308.15 K, x2 = 0.2001	976.091 ± 0.2	1.411 ± 0.017
308.15 K, x2 = 0.3009	953.86 ± 0.18	1.399 ± 0.017
308.15 K, x2 = 0.4019	931.323 ± 0.17	1.393 ± 0.017
308.15 K, x2 = 0.5003	909.136 ± 0.17	1.397 ± 0.017
308.15 K, x2 = 0.5995	886.575 ± 0.16	1.424 ± 0.017
308.15 K, x2 = 0.7004	863.468 ± 0.15	1.489 ± 0.018
308.15 K, x2 = 0.7985	840.874 ± 0.15	1.598 ± 0.019
308.15 K, x2 = 0.899	817.592 ± 0.15	1.786 ± 0.022
313.15 K, x2 = 0	1015 ± 0.24	1.346 ± 0.016
313.15 K, x2 = 0.1049	992.413 ± 0.21	1.327 ± 0.016
313.15 K, x2 = 0.2001	971.652 ± 0.2	1.311 ± 0.015
313.15 K, x2 = 0.3009	949.443 ± 0.18	1.297 ± 0.015
313.15 K, x2 = 0.4019	926.949 ± 0.17	1.285 ± 0.015
313.15 K, x2 = 0.5003	904.8 ± 0.17	1.285 ± 0.015
313.15 K, x2 = 0.5995	882.258 ± 0.16	1.303 ± 0.016
313.15 K, x2 = 0.7004	859.157 ± 0.15	1.351 ± 0.016
313.15 K, x2 = 0.7985	836.567 ± 0.15	1.431 ± 0.017
313.15 K, x2 = 0.899	813.284 ± 0.15	1.566 ± 0.019
318.15 K, x2 = 0	1010.53 ± 0.24	1.259 ± 0.015
318.15 K, x2 = 0.1049	987.978 ± 0.21	1.239 ± 0.015
318.15 K, x2 = 0.2001	967.237 ± 0.2	1.221 ± 0.015
318.15 K, x2 = 0.3009	945.05 ± 0.19	1.206 ± 0.015
318.15 K, x2 = 0.4019	922.578 ± 0.17	1.19 ± 0.014
318.15 K, x2 = 0.5003	900.445 ± 0.17	1.186 ± 0.014
318.15 K, x2 = 0.5995	877.912 ± 0.16	1.197 ± 0.015
318.15 K, x2 = 0.7004	854.81 ± 0.16	1.23 ± 0.015
318.15 K, x2 = 0.7985	832.207 ± 0.15	1.286 ± 0.016
318.15 K, x2 = 0.899	808.882 ± 0.15	1.379 ± 0.017
323.15 K, x2 = 0	1006.06 ± 0.23	1.182 ± 0.014
323.15 K, x2 = 0.1049	983.533 ± 0.21	1.161 ± 0.014
323.15 K, x2 = 0.2001	962.815 ± 0.2	1.141 ± 0.014
323.15 K, x2 = 0.3009	940.651 ± 0.19	1.124 ± 0.014
323.15 K, x2 = 0.4019	918.196 ± 0.18	1.104 ± 0.013
323.15 K, x2 = 0.5003	896.069 ± 0.17	1.098 ± 0.013
323.15 K, x2 = 0.5995	873.531 ± 0.16	1.103 ± 0.014
323.15 K, x2 = 0.7004	850.415 ± 0.16	1.124 ± 0.014
323.15 K, x2 = 0.7985	827.785 ± 0.15	1.162 ± 0.015
323.15 K, x2 = 0.899	804.404 ± 0.15	1.222 ± 0.015
